# Results from patent US20240226062A1, “METHODS AND COMPOSITIONS FOR THE TREATMENT OF DISORDERS CHARACTERIZED BY A KIDINS220 DYSFUNCTION IN A SUBJECT” (priority 2021, published 2024).
# How the values were obtained:
# SNX27-retromer [1] = assay: Immunoblot of NMDA-induced degradation of SNX27-retromer components and cargos in primary cortical neurons; assay type: cell-based, rat; conditions: 50 μM NMDA and 10 μM glycine; DL-AP5 (200 μM) added 1 h or R55 (5 μM) 48 h before
# Protocol: (§1) Cell culture, treatment and transfection of primary cortical astrocytes, neurons and HEK293T cells. Mouse cortical astrocytes were prepared from cerebral cortices of 0 to 2-day-old mice pups according to standard methods. Cells seeded on plates or glass coverslips coated with poly-L-lysine (10 μg/ml) and laminin (4 μg/ml) at a density of 5×10^4 cells/cm2 in complete DMEM-F12. After 2 additional days (DIV14-16) astrocytes were treated with vehicle (DMSO), 100 nM bafilomycin Al (Sigma Co.; St. Louis, MO, USA) for 16 h or 10 μM R55 (MedKoo Biosciences, Inc.; Morrisville, NC, USA) for 48 h. Neuronal cultures were prepared from cerebral cortex of 19-day-old Wistar rat embryos, as we have previously described (Lopez-Menendez et al. 2019). Neurons were used after 10 days in vitro (DIV) for immunofluorescence and DIV14 for biochemical assays. Neurons were pretreated or treated for different times as indicated: 50 μM NMDA and 10 μM glycine (Sigma Co.; St. Louis, MO, USA); 200 μM DL-AP5 (Tocris; Bristol, UK); 5 μM R55. Excitotoxicity was induced by treatment with the NMDAR coagonists NMDA and glycine (referred as NMDA treatment). DL-AP5 or R55 were added 1 h or 48 h before NMDA treatment, respectively. HEK293T cells were cultured and transfected by standard procedures. HEK293T cells and DIV12-14 primary astrocytes were seeded at 50-60% confluence. Two days later cells were transfected in Opti-MEM by using 0.7 μl of Lipofectamine 2000@ reagent (ThermoFisher Scientific) and 0.7 μg of DNA per 24 multi-well plate, according to the manufacturer's specifications. Cells were fixed and processed for immunofluorescence or washed with PBS to prepare protein extracts for immunoprecipitation experiments.
# Preparation of protein extracts, immunoprecipitation, and immunoblot analysis. Protein extracts from mice tissue, primary cell cultures or HEK293T cells were prepared in RIPA by standard methods. Briefly, cultured cells were lysed in RIPA buffer (25 mM Tris-HCl, pH 7.6, 1% Triton X-100, 0.5% sodium deoxycholate, 0.1% SDS, 150 mM NaCl) with protease and phosphatase inhibitors for 30 min at 4° C. Lysates were centrifuged for 30 min at 14,000 rpm at 4° C., and resulting supernatant was considered the total lysate soluble fraction. Different mouse tissues were dissected, frozen in dry ice and homogenized in RIPA buffer as above using potter and Polytron homogenizers. For immunoprecipitation, total lysates were incubated with anti-VPS35 or anti-GFP antibody for 4 h at 4° C., before binding immunocomplexes to protein A sepharose beads for 1 h at 4° C. Beads were washed four times with RIPA buffer before adding Laemli sample buffer. Note that sample boiling was avoided to detect properly AQP4 band by immunoblots. Equal amounts of total lysates or immunoprecipitates were resolved in SDS-PAGE and analysed by immunoblot. Membranes were incubated with different primary and secondary antibodies and immunoreactive bands were detected by ECL (PerkinElmer, Waltham, MA USA). Immunoblot images have been cropped for presentation.
# Quantitative and statistical analysis. Immunoblot signals were quantified by densitometric analysis with ImageJ 1.47d software (NIH) and normalized using β-actin, α-tubulin or GFAP band signal intensities. Data were expressed relative to values obtained in their respective untreated controls or WT mice or astrocytes. For immunofluorescence quantitative analysis of mice and human brain samples, fluorescence intensity of specific antibodies was measured at the ependymal barrier of lateral ventricles using ImageJ 1.47d software (NIH). Specific ROIs were defined in each brain section at the ependymal barrier boundaries, identified by DAPI staining of ependymal cell nuclei. In those regions, fluorescence signal above a certain threshold, stablished as background, was quantified. In the case of human brain necropsies, nine randomly selected ROIs were used for the analysis. […]
# primary cortical neurons [2] = conditions: DL-AP5 preincubation; Lopez-Menendez et al. 2009; cited from earlier work
# SNX27-retromer [3] = assay: Immunofluorescence of SNX27-retromer localization in primary cortical neurons under NMDA excitotoxicity; assay type: cell-based, rat
# Protocol: as §1, with “μM […].” for “μM R55.”, “or […]” for “or R55”, “confluence. […]” for “confluence. Two days later cells were transfected in Opti-MEM by using 0.7 μl of Lipofectamine 2000@ reagent (ThermoFisher Scientific) and 0.7 μg of DNA per 24 multi-well plate, according to the manufacturer's specifications. Cells were fixed and processed for immunofluorescence or washed with PBS to prepare protein extracts for immunoprecipitation experiments.”
# [4] = tested on: trimeric Vps35-Vps29-Vps26 core; conditions: Mecozzi et al. 2014; cited from earlier work
# [5] = tested on: mouse model with plaques and tangles; conditions: AD mouse model, Li et al. 2020; cited from earlier work
# SNX27-retromer [6] = molecular target: T1, SNX27-retromer (Mus musculus, UniProt Q9EQH3+Q9QZ88); assay: Immunoblot of retromer complex and cargo protein levels in cultured astrocytes treated with R55; assay type: cell-based; conditions: 10 μM R55 for 48 h
# T1 construct: endogenous in cells; host or cells: primary mouse cortical astrocytes
# Protocol: as §1, with “HEK293T cells were cultured and transfected by standard procedures. HEK293T cells and DIV12-14 primary astrocytes were seeded at 50-60% confluence. Two days later cells were transfected in Opti-MEM by using 0.7 μl of Lipofectamine 2000@ reagent (ThermoFisher Scientific) and 0.7 μg of DNA per 24 multi-well plate, according to the manufacturer's specifications. Cells were fixed and processed for immunofluorescence or washed with PBS to prepare protein extracts for immunoprecipitation experiments.” left out
# Preparation of protein extracts, immunoprecipitation, and immunoblot analysis. […] Equal amounts of total lysates or immunoprecipitates were resolved in SDS-PAGE and analysed by immunoblot. Membranes were incubated with different primary and secondary antibodies and immunoreactive bands were detected by ECL (PerkinElmer, Waltham, MA USA). […]
# Quantitative and statistical analysis. Immunoblot signals were quantified by densitometric analysis with ImageJ 1.47d software (NIH) and normalized using β-actin, α-tubulin or GFAP band signal intensities. […] For immunofluorescence quantitative analysis of mice and human brain samples, fluorescence intensity of specific antibodies was measured at the ependymal barrier of lateral ventricles using ImageJ 1.47d software (NIH). […] In those regions, fluorescence signal above a certain threshold, stablished as background, was quantified. […]
# primary cortical neurons [7] = assay: Neuronal viability under NMDAR-induced excitotoxicity (MTT reduction assay, MAP2 staining); assay type: cell-based, rat; conditions: neurons incubated with NMDA for 6 h, R55 5 μM added 48 h before
# Protocol: as §1, with “μM […].” for “μM R55.”, “or […]” for “or R55”, “confluence. […]” for “confluence. Two days later cells were transfected in Opti-MEM by using 0.7 μl of Lipofectamine 2000@ reagent (ThermoFisher Scientific) and 0.7 μg of DNA per 24 multi-well plate, according to the manufacturer's specifications. Cells were fixed and processed for immunofluorescence or washed with PBS to prepare protein extracts for immunoprecipitation experiments.”
# AQP4 = assay: Effect of bafilomycin A1 on protein levels in WT and Kidins220^f/f astrocytes (immunofluorescence and immunoblot); assay type: cell-based, mouse; conditions: for AQP4 levels: 100 nM bafilomycin A1 for 16 h
# Protocol: as §1
# Preparation of protein extracts, immunoprecipitation, and immunoblot analysis. Protein extracts from mice tissue, primary cell cultures or HEK293T cells were prepared in RIPA by standard methods. Briefly, cultured cells were lysed in RIPA buffer (25 mM Tris-HCl, pH 7.6, 1% Triton X-100, 0.5% sodium deoxycholate, 0.1% SDS, 150 mM NaCl) with protease and phosphatase inhibitors for 30 min at 4° C. Lysates were centrifuged for 30 min at 14,000 rpm at 4° C., and resulting supernatant was considered the total lysate soluble fraction. […] Equal amounts of total lysates or immunoprecipitates were resolved in SDS-PAGE and analysed by immunoblot. Membranes were incubated with different primary and secondary antibodies and immunoreactive bands were detected by ECL (PerkinElmer, Waltham, MA USA). […]
# Quantitative and statistical analysis. Immunoblot signals were quantified by densitometric analysis with ImageJ 1.47d software (NIH) and normalized using β-actin, α-tubulin or GFAP band signal intensities. […]
# [8] = Kidins220^f/f deficient astrocytes, bafilomycin A1 treatment (not shown)
smiles,measurement,setting,value
NC(CCCP(=O)(O)O)C(=O)O (racemic) [DL-AP5],NMDA-induced degradation of FAM21,SNX27-retromer [1],blocked
same,NMDA-induced degradation of GluN2B subunit of the NMDAR,SNX27-retromer [1],decreasing
same,NMDA-induced degradation of SNX27,SNX27-retromer [1],blocked
same,NMDA-induced degradation of SNX27-retromer cargo Kidins220,SNX27-retromer [1],decreasing
same,cleavage of the calpain substrate spectrin into breakdown products (BDPs),SNX27-retromer [1],reduced
same,neuronal survival,primary cortical neurons [2],preserves
same,SNX27-retromer intracellular organization and colocalization of SNX27 and VPS35 (Pearson's correlation coefficient),"SNX27-retromer [3]; neurons pretreated 1 h with 200 μM DL-AP5, then 50 μM NMDA and 10 μM glycine",preserved
"Cl.N=C(N)SCc1cccs1 [R33, thiophen-2-ylmethyl carbamimidothioate hydrochloride]",retromer levels,[4],increased
same,retromer-mediated trafficking of cargos,[4],enhanced
same,VPS35 levels,[5],elevation
same,amyloid-beta (Aβ) levels and deposition,[5],significant decrease
same,astrocytes activation,[5],less
same,learning and memory,[5],significant improvement
same,synaptic integrity,[5],improved
same,tau phosphorylation,[5],reduced
"Cl.Cl.N=C(N)SCc1ccc(CSC(=N)N)s1 [R55, thiophene-2,5-diylbis(methylene) dicarbamimidothioate dihydrochloride]",NMDA-induced degradation of FAM21,SNX27-retromer [1],decreasing
same,NMDA-induced degradation of GluN2B subunit of the NMDAR,SNX27-retromer [1],decreasing
same,NMDA-induced degradation of SNX27,SNX27-retromer [1],decreasing
same,NMDA-induced degradation of SNX27-retromer cargo Kidins220,SNX27-retromer [1],decreasing
same,cleavage of the calpain substrate spectrin into breakdown products (BDPs),SNX27-retromer [1],diminishment
same,retromer levels,[4],increased
same,retromer-mediated trafficking of cargos,[4],enhanced
same,AQP4 content,SNX27-retromer [6],increased
same,Kidins220 levels,SNX27-retromer [6],mild effect on elevating
same,VPS35 levels,SNX27-retromer [6],mild effect on elevating
same,"SNX27, FAM21 and VPS35 localization in endocytic vesicles","SNX27-retromer [3]; neurons pretreated 48 h with 5 μM R55, then excitotoxic NMDA",preserved
same,neuroprotection (MAP2 immunofluorescence and MTT-viability assays),primary cortical neurons [7],strong neuroprotection
CO/C1=C\C(C)=C\[C@@H](C)[C@@H](O)[C@@H](C)C/C(C)=C/C=C/[C@H](OC)[C@@H]([C@@H](C)[C@@H](O)[C@H](C)[C@@]2(O)C[C@@H](O)[C@H](C)[C@@H](C(C)C)O2)OC1=O [bafilomycin A1],AQP4 levels,AQP4; Kidins220^f/f astrocytes,significant increase
same,loss of SNX27,AQP4; [8],not rescued
same,loss of VPS35,AQP4; [8],not rescued
same,AQP4 levels,AQP4; WT astrocytes,significant increase
